# Results published in patent US6537545B1, “Use of corneal hardening agents in enzymeorthokeratology” (ISTA Pharmaceuticals, Inc., priority 1998, dated 2003).
# Tests used:
# [1] = test system: eyes of myopic human subjects; assay: Mild myopia study, group I: 50 IU hyaluronidase, corrective lenses, 3% glyceraldehyde (Example 9); format: in vivo; conditions: 50 IU hyaluronidase and corrective lenses
# From the text: (§1) Given the favorable results obtained in Example 8, an additional study was undertaken to test the safety and efficacy of the method of the present invention using a larger group of subjects. In this study, a group of subjects were selected and randomly separated into three test groups to test the safety and efficacy of using hyaluronidase and a glyceraldehyde solution for treating subjects with sub-optimal visual acuity. Groups one and two received an intrastromal injection of hyaluronidase (50 and 500 IU, respectively), while group three received a control injection of saline.
# (§2) Following a two week incubation period after the injection, the three groups were fitted with corrective lenses to optimize the visual acuity of the subjects. The corrective lenses were left in place for a period of time sufficient to alter the shape of the subjects' eyes so as to achieve an optimal visual acuity. This period of time was generally 2 days in length. Once an acceptable visual acuity was achieved, the subjects in the three groups received a topical 3% glyceraldehyde solution in the form of ophthalmic drops four times per day while wearing the corrective lenses. The glyceraldehyde treatment was generally administered for one month. Lens wear occurred from 8 to 12 hours during the day.
# (§3) At the end of the treatment period both the lens wear and the glyceraldehyde solution administration was terminated. The general health and visual acuity of the subjects was monitored from 3 to 5 months following treatment termination.
# Before beginning the experimental protocol, test subjects were examined initially to establish a baseline from which the future results of the treatment were compared. For each subject a medical history was taken and a detailed examination of the eyes was also performed. The eyes of each subject were tested to determine: refraction cell count, intraocular pressure (IOP), pachymetry, corneal topography and corneal elasticity. A slit-lamp examination was also performed to establish the health of the eye. Also, the presence of any general or ocular discomfort of the subjects was noted.
# Following the establishment of a baseline reading, group 1 subjects were administered a single intrastromal injection of 50 IU hyaluronidase prior to the orthokeratology treatment. Following 14 days of incubation, the subjects were fitted with corrective contact lenses for overnight wear. Subjects wore the corrective lenses night and day for a period of two (2) to seven (7) days or until visual 20/20 visual acuity was achieved. Subjects achieving an acceptable visual acuity (approximately 20/20) received an application of the topical 3% glyceraldehyde solution ophthalmic drops four times per day (8:00, 12:00, 16:00, and 20:00) for a period of 1 month in conjunction with daytime lens wear for stabilization. Lens wear lasted for 8 to 12 hours per day. The subjects were examined periodically during the glyceraldehyde treatment to monitor changes in the health of the treated eyes.
# (§4) At the end of the treatment period, the stabilizing lens were removed and the administration of the 3% glyceraldehyde solution was terminated. Following termination of the treatment, the subjects were examined immediately after treatment was terminated, once a week for the first four weeks after termination, and then monthly to measure changes in the visual acuity of the treated eyes. The health of the eye was also monitored. Sequelae characterized by the appearance or worsening of serious ocular symptoms or slit-lamp findings observed during these examinations was assessed. The proportions of subjects with such findings were analyzed.
# [2] = test system: eyes of myopic human subjects; assay: Mild myopia study, group II: 500 IU hyaluronidase, corrective lenses, 3% glyceraldehyde (Example 9); format: in vivo; conditions: 500 IU hyaluronidase and corrective lenses
# From the text: as §1, §2, §3
# The subjects of group II were treated as those in group I in preparation for their participation in the study reported here. Before beginning the experimental protocol, test subjects were examined initially to establish a baseline from which the future results of the treatment were compared.
# Following the establishment of a baseline reading, group II subjects were fitted with contact lenses and wore the corrective lenses at night for a period of two (2) to seven (7) days or until an acceptable visual acuity (approximately 20/20) was achieved. Group II test subjects received 500 IU of hyaluronidase by injection as compared to the 50 IU of group I. Two groups of subjects received 500 IU of hyaluronidase. The results obtained from the first group are shown in Table IIIA and the results from the second group are shown in Table IIIA and are identified in the table by the notation Gr. VI. There were no meaningful differences in the treatment protocols between these two groups. Subjects achieving an acceptable visual acuity received the topical 3% glyceraldehyde solution in the form of ophthalmic drops four times per day (08:00, 12:00, 16:00, and 20:00) for a period of 1 month in conjunction with daytime lens wear for stabilization. During this period, lens were occurred for approximately 8-12 hours per day and there was no nocturnal lens wear.
# The subjects were examined periodically during the glyceraldehyde treatment to monitor changes in the health of the treated eyes.
# as §4, with “examinations were” for “examinations was”
# cornea = assay: Corneal elasticity, recovery from indentation by spherical glass indentor (Example 7); format: in vivo, human; conditions: eyes injected with hyaluronidase solution
# Experimental: A precision spherical glass indentor was used to contact the corneal surface of subjects treated with the methods of the present invention to measure changes in corneal elasticity. The method used involved the application of the indentor, in the form of a small spherical ball to gently deflect into a test cornea to establish an initial deflection value. Measurements were taken by using an interferometer to view the deflection. Following this application, the relaxation period was measured by observing the change in the impression made by the indentor.
# The indentation range of movement was characterized using a precision linear variable differential transducer (LVDT) device that measured the linear travel of a stage carrying the indentor probe. The average travel distance of the probe was established at approximately 700 micrometers. The contact depth of the indentor probe was measured by evaluating the corneal surface immediately after indentation and measuring the local height values caused by the probe contact. This value was measured to range from 266 to 300 micrometers.
# A digital timer was used to mark the beginning and ending times during observation. Changes in the impression were readily observed during this period. The final end point was considered to be when the local fringe disturbance was recovered blending with the undisturbed neighboring fringes. […] However, given the time scales involved, the value of this error is considered to be small.
# The method of inducing corneal inflection involved first contacting the test corneal with the indentor. After the initial contact with the cornea was established, the probe was moved forward into the cornea to a predetermined distance. Seven hundred microns was used to achieve adequate deflection. Topography was taken immediately after the deflection to record the impression made in the cornea. Observations of the cornea were then made at one (1) minute intervals to note the change in the impression made. […] Another topography was done after five (5) minutes to record the final condition of the impression. […]
# [3] = test system: eye of myopic human patient; assay: Safety and efficacy of hyaluronidase and topical 3% glyceraldehyde solution, myopia in a human patient (Example 8); format: in vivo; conditions: one subject, baseline UVA 20/300; 50 IU hyaluronidase, 7 days incubation, 7 days corrective lens wear, before drops
# Experimental: In this study, a single subject was selected to test the safety and efficacy of using hyaluronidase and a glyceraldehyde solution to treat sub-optimal visual acuity. In this study, the subject was first medically evaluated and a baseline was established. A medical history of the subject was taken and a detailed examination of the subject's eyes was also performed. The subject's eyes were tested to determine: refraction, cell count, intraocular pressure (IOP), pachymetry, corneal topography and corneal elasticity. A slit-lamp examination was also performed to establish the health of the eyes. Also, the presence of any general or ocular discomfort of the subject was noted.
# Following the establishment of a baseline reading (UVA 20/300), the subject was administered a single intrastromal injection of 50 IU hyaluronidase prior to the orthokeratology treatment. Following 7 days of incubation of the subject's eyes with the injected material, the subject was fitted with corrective contact lenses for overnight wear. The subject wore the corrective lenses day and night for a period of seven (7) days. At this point the subject's visual acuity was 20/15. […] The visual acuity of the subject was then monitored for 196 days to determine the effect of the treatment on the unaided visual acuity of the subject;
substance,measurement,setting,value
hyaluronidase,visual acuity achieved by initial orthokeratological treatment,"[1]; all subjects except ARR/001 and JLV/015, before drops",20/20
same,visual acuity achieved by initial orthokeratological treatment,"[1]; subject 001, before glyceraldehyde drops",20/25
same,visual acuity achieved by initial orthokeratological treatment,"[1]; subject 015, before glyceraldehyde drops",20/40
same,visual acuity achieved before glyceraldehyde drops,[2]; subject 013 (Table IIIA),20/40
same,visual acuity achieved before glyceraldehyde drops,[2]; subject 104 (Table IIIB),20/50
same,change in corneal elasticity vs baseline,cornea,significant reduction in corneal elasticity
same,visual acuity,[3],20/15
